According to patent US8492543B2, “Method for producing quinazoline derivative” (Eisai R&D Management Co., Ltd., priority 2007, dated 2013):
Read-outs that look alike come from different tables or passages of the source.

Legend:
CYP1A1 = conditions: human, hepatocytes
Protocol: Cryopreserved human hepatocytes (XenoTeck) were rapidly thawed at 37° C., and viable cells were obtained using Hepatocytes Isolation Kit (Nosan Corporation). After cells prepared were diluted with ice cold William's Medium E (10% FBS, +PSG) to give a concentration of 5×10^5 viable cells/mL, the cells were seeded onto a 48-well collagen-coated plate (BD Biosciences) at a concentration of 1×10^5 cells/cm^2 and cultured at 37° C. in 5% CO2 for 24 hours. Then, the medium was replaced with Hepato-STIM (registered trade mark: BD Biosciences) (+EGF, PSG, −FBS), and the cells were further cultured at 37° C. in 5% CO2 for 24 hours. […] The culture medium containing test compound, β-NF or Rif was replaced every 24 hours. Test compound, β-NF and Rif were each dissolved in dimethyl sulfoxide (DMSO: Wako Pure Chemical Industries, Ltd.), and culture medium containing test compound (final concentrations; 1, 3 and 10 μM), β-NF (final concentration; 10 μM) or Rif (final concentration; 10 μM) was prepared by adding them to Hepato-STIM(+EGF, PSG, −FBS), respectively. Final concentration of DMSO was set to be 0.1%, and culture medium containing 0.1% DMSO was used for control. […] The levels of mRNA for CYP1A1 and GAPDH were quantified using SYBR Green PCR Core Reagents Kit (Applied Biosystems), and those for CYP1A2 and that of CYP3A4 were measured using Taqman PCR Core Reagents Kit (Applied Biosystems) and ABI Prism 7900 Sequence Detection System (Applied Biosystems).
(§1) The ability of a test compound to induce CYP1A1 was calculated as follows: Ability of a test compound to induce CYP1A1(%)={[(amount of mRNA of CYP1A1 in test compound treated cells)/(amount of mRNA of GAPDH in test compound treated cells)]/[(amount of mRNA of CYP1A1 in control cells)/(amount of mRNA of GAPDH in control cells)]−1}/{[(amount of mRNA of CYP1A1 in positive control treated cells)/(amount of mRNA of GAPDH in positive control treated cells)]/[(amount of mRNA of CYP1A1 in control cells)/(amount of mRNA of GAPDH in control cells)]−1}×100

CYP1A2 [1] = conditions: human, hepatocytes
Protocol: (§2) Cryopreserved human hepatocytes (XenoTeck) were rapidly thawed at 37° C., and viable cells were obtained using Hepatocytes Isolation Kit (Nosan Corporation). After cells prepared were diluted with ice cold William's Medium E (10% FBS, +PSG) to give a concentration of 5×10^5 viable cells/mL, the cells were seeded onto a 48-well collagen-coated plate (BD Biosciences) at a concentration of 1×10^5 cells/cm^2 and cultured at 37° C. in 5% CO2 for 24 hours. Then, the medium was replaced with Hepato-STIM (registered trade mark: BD Biosciences) (+EGF, PSG, −FBS), and the cells were further cultured at 37° C. in 5% CO2 for 24 hours. […] The culture medium containing test compound, β-NF or Rif was replaced every 24 hours. Test compound, β-NF and Rif were each dissolved in dimethyl sulfoxide (DMSO: Wako Pure Chemical Industries, Ltd.), and culture medium containing test compound (final concentrations; 1, 3 and 10 μM), β-NF (final concentration; 10 μM) or Rif (final concentration; 10 μM) was prepared by adding them to Hepato-STIM(+EGF, PSG, −FBS), respectively. Final concentration of DMSO was set to be 0.1%, and culture medium containing 0.1% DMSO was used for control. After completion of the treatment, the cells were washed with PBS once, and total RNA was purified using Total RNA Purification Kit (Applied Biosystems). The purified total RNA was subjected to reverse transcription reaction using TaqMan Reverse Transcription Reagents (Applied Biosystems) to synthesize cDNA, where oligo dT was used as a primer. The reaction was carried out using Gene Amp PCR system 9700 at 25° C. for 10 minutes, followed by at 48° C. for 60 minutes. Then, reverse transcriptase was deactivated at 95° C. for 10 minutes. The levels of mRNA for CYP1A1 and GAPDH were quantified using SYBR Green PCR Core Reagents Kit (Applied Biosystems), and those for CYP1A2 and that of CYP3A4 were measured using Taqman PCR Core Reagents Kit (Applied Biosystems) and ABI Prism 7900 Sequence Detection System (Applied Biosystems).
as §1
(§3) The ability to induce CYP1A2 or CYP3A4 was calculated in the same manner described above.

CYP3A4 = assay: Induction potency of drug metabolizing enzyme (CYP) using cryopreserved human hepatocytes: CYP3A4 mRNA; conditions: approx. 48 hours, mRNA relative to Rif 10 μM
Protocol: Cryopreserved human hepatocytes (XenoTeck) were rapidly thawed at 37° C., and viable cells were obtained using Hepatocytes Isolation Kit (Nosan Corporation). After cells prepared were diluted with ice cold William's Medium E (10% FBS, +PSG) to give a concentration of 5×10^5 viable cells/mL, the cells were seeded onto a 48-well collagen-coated plate (BD Biosciences) at a concentration of 1×10^5 cells/cm^2 and cultured at 37° C. in 5% CO2 for 24 hours. Then, the medium was replaced with Hepato-STIM (registered trade mark: BD Biosciences) (+EGF, PSG, −FBS), and the cells were further cultured at 37° C. in 5% CO2 for 24 hours. […] The culture medium containing test compound, β-NF or Rif was replaced every 24 hours. Test compound, β-NF and Rif were each dissolved in dimethyl sulfoxide (DMSO: Wako Pure Chemical Industries, Ltd.), and culture medium containing test compound (final concentrations; 1, 3 and 10 μM), β-NF (final concentration; 10 μM) or Rif (final concentration; 10 μM) was prepared by adding them to Hepato-STIM(+EGF, PSG, −FBS), respectively. […] The levels of mRNA for CYP1A1 and GAPDH were quantified using SYBR Green PCR Core Reagents Kit (Applied Biosystems), and those for CYP1A2 and that of CYP3A4 were measured using Taqman PCR Core Reagents Kit (Applied Biosystems) and ABI Prism 7900 Sequence Detection System (Applied Biosystems).
as §1, §3

CYPs = assay: Induction potency on CYPs, overall statement (cryopreserved human hepatocytes); conditions: CYP1A1, CYP1A2, CYP3A4; 1, 3 and 10 μM
Protocol: Cryopreserved human hepatocytes (XenoTeck) were rapidly thawed at 37° C., and viable cells were obtained using Hepatocytes Isolation Kit (Nosan Corporation). After cells prepared were diluted with ice cold William's Medium E (10% FBS, +PSG) to give a concentration of 5×10^5 viable cells/mL, the cells were seeded onto a 48-well collagen-coated plate (BD Biosciences) at a concentration of 1×10^5 cells/cm^2 and cultured at 37° C. in 5% CO2 for 24 hours. Then, the medium was replaced with Hepato-STIM (registered trade mark: BD Biosciences) (+EGF, PSG, −FBS), and the cells were further cultured at 37° C. in 5% CO2 for 24 hours. […] The culture medium containing test compound, β-NF or Rif was replaced every 24 hours. […] The levels of mRNA for CYP1A1 and GAPDH were quantified using SYBR Green PCR Core Reagents Kit (Applied Biosystems), and those for CYP1A2 and that of CYP3A4 were measured using Taqman PCR Core Reagents Kit (Applied Biosystems) and ABI Prism 7900 Sequence Detection System (Applied Biosystems). […]
as §3

CYP1A2 [2] = assay: Induction potency of drug metabolizing enzyme (CYP) using cryopreserved human hepatocytes: CYP1A2 mRNA; conditions: 10 μM, approx. 48 hours, mRNA relative to β-NF 10 μM
Protocol: as §2, §1, §3

SMILES: COc1cc2nc(Cl)nc(-c3cccc(NC(=O)OC(C)(C)C)c3)c2cc1OC [Example 1, t-butyl [3-(2-chloro-6,7-dimethoxyquinazolin-4-yl)phenyl]carbamate]
- Induction Ability compared to positive control (%) CYP1A1 (CYP1A1; 1 μM): 0.1%
- Induction Ability compared to positive control (%) CYP1A1 (CYP1A1; 3 μM): 0.6%
- Induction Ability compared to positive control (%) CYP1A1 (CYP1A1; 10 μM): 4.6%
- Induction Ability compared to positive control (%) CYP1A2 (CYP1A2 [1]; 1 μM): −0.1%
- Induction Ability compared to positive control (%) CYP1A2 (CYP1A2 [1]; 3 μM): −0.7%
- Induction Ability compared to positive control (%) CYP1A2 (CYP1A2 [1]; 10 μM): 2.5%
- Induction Ability compared to positive control (%) CYP3A4 (CYP3A4; 1 μM): −2.4%
- Induction Ability compared to positive control (%) CYP3A4 (CYP3A4; 3 μM): −3.4%
- Induction Ability compared to positive control (%) CYP3A4 (CYP3A4; 10 μM): −4.0%

SMILES: CNc1nc(-c2cccc(NC(=O)c3ccc(C(=O)OC)cc3)c2)c2cc(OC)c(OC)cc2n1 [Example 10, methyl N-[3-(6,7-dimethoxy-2-methylaminoquinazolin-4-yl)phenyl]terephthalamic acid]
- induction potency on CYPs compared with the comparative example (CYPs): lower induction potency on CYPs than the compound of the comparative example

SMILES: O=c1cc(-c2ccccc2)oc2ccc3ccccc3c12 [β-naphthof lavone, β-naphthoflavone]
- Induction Ability compared to positive control (%) CYP1A2 (CYP1A2 [2]): 100.0%
